ChEMBL document CHEMBL1909046, “DrugMatrix in vitro pharmacology data”

Key:
[1] = biological target: T1, Nitric oxide synthase, inducible (Mus musculus, UniProt P29477); parameters: species or system Escherichia coli;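 also: inhibition of iNOS enzyme activity measured with L-arginine as substrate; in other assays of this panel Not Active means under 50% inhibition at 10 µM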
T1 sequence (P29477 whole entry): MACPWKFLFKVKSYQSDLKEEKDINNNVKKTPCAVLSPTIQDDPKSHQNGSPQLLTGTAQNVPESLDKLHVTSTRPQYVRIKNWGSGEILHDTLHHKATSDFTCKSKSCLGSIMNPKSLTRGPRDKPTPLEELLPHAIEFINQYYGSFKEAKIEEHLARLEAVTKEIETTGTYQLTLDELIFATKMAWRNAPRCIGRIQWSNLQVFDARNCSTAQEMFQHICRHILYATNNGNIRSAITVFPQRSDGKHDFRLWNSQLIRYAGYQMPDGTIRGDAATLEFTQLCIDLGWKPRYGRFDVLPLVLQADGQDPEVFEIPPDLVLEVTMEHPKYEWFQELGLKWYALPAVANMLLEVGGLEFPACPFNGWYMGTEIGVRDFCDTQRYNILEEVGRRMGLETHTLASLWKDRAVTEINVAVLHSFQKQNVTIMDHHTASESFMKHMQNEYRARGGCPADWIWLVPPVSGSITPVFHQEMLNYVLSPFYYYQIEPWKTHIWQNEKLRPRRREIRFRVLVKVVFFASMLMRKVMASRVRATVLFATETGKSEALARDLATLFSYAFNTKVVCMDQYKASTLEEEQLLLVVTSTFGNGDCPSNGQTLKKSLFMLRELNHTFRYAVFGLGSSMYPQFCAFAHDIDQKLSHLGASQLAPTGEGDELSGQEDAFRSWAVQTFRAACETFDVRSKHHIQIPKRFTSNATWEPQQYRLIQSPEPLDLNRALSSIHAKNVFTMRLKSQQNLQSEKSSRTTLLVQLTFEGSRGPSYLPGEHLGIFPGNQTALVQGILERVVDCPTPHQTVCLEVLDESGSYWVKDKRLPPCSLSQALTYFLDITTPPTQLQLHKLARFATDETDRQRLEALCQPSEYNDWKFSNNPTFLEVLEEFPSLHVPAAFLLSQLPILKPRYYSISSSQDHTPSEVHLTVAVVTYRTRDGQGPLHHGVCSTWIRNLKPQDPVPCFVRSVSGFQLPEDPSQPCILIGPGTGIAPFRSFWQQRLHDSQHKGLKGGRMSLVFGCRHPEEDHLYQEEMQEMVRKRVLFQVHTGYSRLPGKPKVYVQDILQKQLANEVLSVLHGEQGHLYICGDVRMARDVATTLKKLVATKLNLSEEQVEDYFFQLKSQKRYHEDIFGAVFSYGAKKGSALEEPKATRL

Melanocortin receptor 3 = Melanocortin receptor 3 (Homo sapiens, UniProt P41968); type: cell membranes, Membrane; conditions: hek293; also: in other assays of this panel Not Active means under 50% inhibition at 10 µM
Chain of Melanocortin receptor 3 (P41968 whole entry): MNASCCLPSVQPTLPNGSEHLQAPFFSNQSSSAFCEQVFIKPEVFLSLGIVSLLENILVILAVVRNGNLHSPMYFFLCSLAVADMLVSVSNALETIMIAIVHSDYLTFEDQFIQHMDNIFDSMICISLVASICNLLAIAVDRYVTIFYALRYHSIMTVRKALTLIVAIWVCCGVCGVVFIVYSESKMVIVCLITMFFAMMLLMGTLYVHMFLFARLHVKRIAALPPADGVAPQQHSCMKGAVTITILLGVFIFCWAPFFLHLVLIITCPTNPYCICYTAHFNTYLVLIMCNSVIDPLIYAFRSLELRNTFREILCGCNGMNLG

B2 bradykinin receptor = biological target: T2, B2 bradykinin receptor (Homo sapiens, UniProt P30411); type: cell membranes, Membrane; conditions: chem-1; also: in other assays of this panel Not Active means under 50% inhibition at 10 µM
T2 sequence (P30411 whole entry): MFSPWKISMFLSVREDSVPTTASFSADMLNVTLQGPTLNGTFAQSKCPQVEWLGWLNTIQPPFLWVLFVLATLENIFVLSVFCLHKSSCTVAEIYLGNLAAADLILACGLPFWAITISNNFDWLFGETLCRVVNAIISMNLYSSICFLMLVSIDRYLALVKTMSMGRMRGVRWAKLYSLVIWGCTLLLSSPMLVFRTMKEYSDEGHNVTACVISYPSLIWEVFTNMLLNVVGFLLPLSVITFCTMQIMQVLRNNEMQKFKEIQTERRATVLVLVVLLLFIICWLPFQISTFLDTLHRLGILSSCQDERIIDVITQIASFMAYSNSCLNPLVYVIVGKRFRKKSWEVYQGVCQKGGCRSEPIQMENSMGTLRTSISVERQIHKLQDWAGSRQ

Cytochrome P450 3A4 = Cytochrome P450 3A4 (Homo sapiens, UniProt P08684); conditions: bti-tn-5b1-4; also: in other assays of this panel Not Active means under 50% inhibition at 10 µM
Chain of Cytochrome P450 3A4 (P08684 whole entry): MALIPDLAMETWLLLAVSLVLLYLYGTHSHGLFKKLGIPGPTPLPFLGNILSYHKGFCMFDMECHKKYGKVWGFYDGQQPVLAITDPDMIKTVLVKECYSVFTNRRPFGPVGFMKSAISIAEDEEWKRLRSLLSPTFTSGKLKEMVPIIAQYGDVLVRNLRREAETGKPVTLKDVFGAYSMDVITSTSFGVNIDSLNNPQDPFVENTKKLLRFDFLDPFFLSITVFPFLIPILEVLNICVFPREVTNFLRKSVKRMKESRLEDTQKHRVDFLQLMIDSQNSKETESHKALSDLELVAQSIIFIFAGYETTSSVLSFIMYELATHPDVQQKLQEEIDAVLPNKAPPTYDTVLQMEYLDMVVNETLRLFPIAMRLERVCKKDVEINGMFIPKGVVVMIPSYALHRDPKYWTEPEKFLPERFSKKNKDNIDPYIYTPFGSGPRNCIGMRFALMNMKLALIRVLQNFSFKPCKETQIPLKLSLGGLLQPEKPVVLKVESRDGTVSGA

[2] = biological target: Mitogen-activated protein kinase 3 (Homo sapiens, UniProt P27361); assay: DRUGMATRIX: Protein Serine/Threonine Kinase, ERK1 enzyme inhibition (substrate: Myelin Basic Protein); parameters: species or system Escherichia coli; conditions: Not Active = under 50% inhibition at 10 µM
Chain of Mitogen-activated protein kinase 3 (P27361 whole entry): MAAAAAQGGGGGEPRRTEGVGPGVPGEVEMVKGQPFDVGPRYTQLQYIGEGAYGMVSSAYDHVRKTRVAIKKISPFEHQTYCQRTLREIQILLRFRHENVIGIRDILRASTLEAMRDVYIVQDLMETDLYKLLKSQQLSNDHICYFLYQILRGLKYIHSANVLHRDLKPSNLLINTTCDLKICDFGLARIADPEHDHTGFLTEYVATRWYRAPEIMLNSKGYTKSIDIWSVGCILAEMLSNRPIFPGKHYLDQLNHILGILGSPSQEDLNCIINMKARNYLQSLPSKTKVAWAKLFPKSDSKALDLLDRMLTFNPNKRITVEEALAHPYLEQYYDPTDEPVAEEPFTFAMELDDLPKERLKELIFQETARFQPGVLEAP

[3] = biological target: T3, Muscarinic acetylcholine receptor M4 (Homo sapiens, UniProt P08173); type: cell membranes, CHO-K1, Membrane; conditions: cho-k1; also: in other assays of this panel Not Active means under 50% inhibition at 10 µM
T3 sequence (P08173 whole entry): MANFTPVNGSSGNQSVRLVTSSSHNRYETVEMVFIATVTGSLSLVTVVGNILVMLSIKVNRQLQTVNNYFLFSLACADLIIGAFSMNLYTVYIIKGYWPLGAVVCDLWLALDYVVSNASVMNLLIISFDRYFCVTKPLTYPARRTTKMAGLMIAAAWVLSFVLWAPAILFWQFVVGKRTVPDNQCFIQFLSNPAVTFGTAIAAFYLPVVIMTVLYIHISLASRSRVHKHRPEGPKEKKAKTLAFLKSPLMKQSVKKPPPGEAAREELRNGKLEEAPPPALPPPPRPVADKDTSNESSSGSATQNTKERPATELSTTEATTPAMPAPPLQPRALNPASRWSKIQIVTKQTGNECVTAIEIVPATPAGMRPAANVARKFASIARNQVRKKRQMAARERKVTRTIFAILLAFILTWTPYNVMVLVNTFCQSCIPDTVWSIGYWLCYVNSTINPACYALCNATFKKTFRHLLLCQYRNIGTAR

Adenosine receptor A1 = biological target: T4, Adenosine receptor A1 (Homo sapiens, UniProt P30542); type: cell membranes, CHO, Membrane; conditions: cho
T4 sequence (P30542 whole entry): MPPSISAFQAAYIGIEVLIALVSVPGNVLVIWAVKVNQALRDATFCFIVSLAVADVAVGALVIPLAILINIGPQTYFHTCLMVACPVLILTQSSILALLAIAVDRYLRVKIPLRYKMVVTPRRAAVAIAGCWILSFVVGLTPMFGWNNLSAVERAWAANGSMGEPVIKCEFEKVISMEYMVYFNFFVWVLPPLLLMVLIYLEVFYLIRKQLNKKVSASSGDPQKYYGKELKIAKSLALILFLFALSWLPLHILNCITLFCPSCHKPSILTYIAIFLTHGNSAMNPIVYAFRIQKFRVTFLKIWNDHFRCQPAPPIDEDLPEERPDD

CC(C)NC[C@@H](O)COc1cccc2ccccc12 [DEXPROPRANOLOL]
Not Active: IC50 [1] | IC50 (Melanocortin receptor 3) | IC50 (B2 bradykinin receptor) | IC50 (Cytochrome P450 3A4) | Ki (Cytochrome P450 3A4) | IC50 [2] | IC50 [3] | IC50 (Adenosine receptor A1)

Cc1ccc(C(=O)c2ccc(CC(=O)O)n2C)cc1 [TOLMETIN]
Not Active: IC50 [1] | IC50 (Melanocortin receptor 3) | IC50 (B2 bradykinin receptor) | IC50 (Cytochrome P450 3A4) | Ki (Cytochrome P450 3A4) | IC50 [2] | IC50 [3] | IC50 (Adenosine receptor A1)

CC(=O)OCC(COC(C)=O)OC(C)=O [TRIACETIN]
Not Active: IC50 [1] | IC50 (Melanocortin receptor 3) | IC50 (B2 bradykinin receptor) | IC50 (Cytochrome P450 3A4) | Ki (Cytochrome P450 3A4) | IC50 [2] | IC50 [3] | IC50 (Adenosine receptor A1)

TRANSPLATIN
Not Active: IC50 [1] | Ki [1] | IC50 (Melanocortin receptor 3) | Ki (Melanocortin receptor 3) | IC50 (B2 bradykinin receptor) | Ki (B2 bradykinin receptor) | IC50 (Cytochrome P450 3A4) | Ki (Cytochrome P450 3A4) | IC50 [2] | Ki [2] | IC50 [3] | Ki [3] | IC50 (Adenosine receptor A1) | Ki (Adenosine receptor A1)

O=C(O)COc1ccc(C(=O)c2cccs2)c(Cl)c1Cl
Not Active: IC50 [1] | IC50 (Melanocortin receptor 3) | IC50 (B2 bradykinin receptor) | IC50 (Cytochrome P450 3A4) | Ki (Cytochrome P450 3A4) | IC50 [2] | IC50 [3] | IC50 (Adenosine receptor A1)

ZIRCONIUM(IV) CHLORIDE
Not Active: IC50 [1] | Ki [1] | IC50 (Melanocortin receptor 3) | Ki (Melanocortin receptor 3) | IC50 (B2 bradykinin receptor) | Ki (B2 bradykinin receptor) | IC50 (Cytochrome P450 3A4) | Ki (Cytochrome P450 3A4) | IC50 [2] | Ki [2] | IC50 [3] | Ki [3] | IC50 (Adenosine receptor A1) | Ki (Adenosine receptor A1)
